The subject of assay [1] is Escherichia coli. Description: Competitive inhibition of Escherichia coli rhomboid GlpG assessed as residual enzyme activity at 100 uM preincubated for 30 mins followed by FP-Rh addition measured after 1 hr by gel-based ABPP method.
Assay [2] is described as follows: Selectivity index, ratio of IC50 for competitive inhibition of Escherichia coli rhomboid GlpG to IC50 for competitive inhibition of Bacillus subtilis rhomboid YqgP.
Assay [3] is described as follows: Inhibition of bovine trypsin using Z-GGR-AMC as substrate preincubated for 30 mins followed by substrate addition measured for 20 mins by fluorescence assay. Details: species or system Bos taurus.
Another assay addresses T1, Rhomboid protease GluP (Bacillus subtilis (strain 168), UniProt P54493).
T1 sequence (P54493 whole entry): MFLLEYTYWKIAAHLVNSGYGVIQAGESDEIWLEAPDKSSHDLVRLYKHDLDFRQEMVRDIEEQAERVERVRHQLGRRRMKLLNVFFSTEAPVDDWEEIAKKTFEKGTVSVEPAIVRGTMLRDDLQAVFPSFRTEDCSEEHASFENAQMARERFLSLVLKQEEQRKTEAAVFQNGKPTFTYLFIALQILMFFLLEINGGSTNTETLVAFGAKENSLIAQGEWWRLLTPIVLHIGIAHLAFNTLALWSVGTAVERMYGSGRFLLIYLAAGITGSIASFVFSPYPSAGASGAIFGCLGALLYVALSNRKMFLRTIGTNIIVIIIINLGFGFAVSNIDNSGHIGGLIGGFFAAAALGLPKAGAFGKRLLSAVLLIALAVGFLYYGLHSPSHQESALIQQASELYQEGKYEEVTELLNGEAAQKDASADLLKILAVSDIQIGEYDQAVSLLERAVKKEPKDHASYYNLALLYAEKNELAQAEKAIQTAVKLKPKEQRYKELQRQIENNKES
Description: Competitive inhibition of Bacillus subtilis rhomboid YqgP preincubated for 30 mins followed by FP-Rh addition measured after 1 hr by gel-based ABPP method.

A short description of assay [4]: Competitive inhibition of Escherichia coli rhomboid GlpG preincubated for 30 mins followed by FP-Rh addition measured after 1 hr by gel-based ABPP method.
Assay [5] can be described thus: Inhibition of bovine chymotrypsin using Suc-AAF-AMC as substrate preincubated for 30 mins followed by substrate addition measured for 20 mins by fluorescence assay. Further details: species or system Bos taurus.
For assay [6], the target named is T2, Rhomboid protease GluP (Bacillus subtilis (strain 168)) (UniProt P54493).
T2 sequence (whole entry): T1 sequence (P54493 whole entry)
Description: Competitive inhibition of Bacillus subtilis rhomboid YqgP assessed as residual enzyme activity at 100 uM preincubated for 30 mins followed by FP-Rh addition measured after 1 hr by gel-based ABPP method.

The test system of assay [7] is Escherichia coli. Description: (§1) Inhibition of rhomboid GlpG in Escherichia coli MC4100 outer membrane permeabilized mutant containing delta-lptD4213 preincubated for 15 mins followed by pPR61 (pD881-SR_MBP-LacYTM2-Trx) substrate addition measured after 4 hrs by fluorescence based Western blot.
Assay [8] deals with Escherichia coli. Description: Reversible inhibition of Escherichia coli rhomboid GlpG assessed as residual activity at 10 uM preincubated for 30 mins followed by excess drug removal for 30 mins before FP-Rh addition measured after 1 hr by ABPP method.
Assay [9] deals with Escherichia coli. Description: Competitive inhibition of Escherichia coli rhomboid GlpG at 100 uM preincubated for 30 mins followed by FP-Rh addition measured after 1 hr by gel-based ABPP method.
The target of assay [10] is T2, Rhomboid protease GluP (Bacillus subtilis (strain 168)). Description: Competitive inhibition of Bacillus subtilis rhomboid YqgP at 100 uM preincubated for 30 mins followed by FP-Rh addition measured after 1 hr by gel-based ABPP method.
Assay [11] concerns Escherichia coli. Description: Irreversible inhibition of Escherichia coli rhomboid GlpG assessed as residual activity at 10 uM preincubated for 30 mins followed by excess drug removal for 0 to 240 mins before FP-Rh addition measured after 1 hr by ABPP method.
Assay [12] relates to Escherichia coli. Description: Reversible inhibition of Escherichia coli rhomboid GlpG assessed as residual activity preincubated for 30 mins followed by excess drug removal for 240 mins before FP-Rh addition measured after 1 hr by ABPP method.
A short description of assay [13]: as §1.
Assay [14] is described as follows: Selectivity index, ratio of IC50 for competitive inhibition of Bacillus subtilis rhomboid YqgP to IC50 for competitive inhibition of Escherichia coli rhomboid GlpG.

Structures are written as SMILES. The source made the active and inactive calls. The rule behind the calls is not given here. A value given as a limit tells only on which side of the number the result lay.

The IC50 is the concentration that gives 50% inhibition. Higher therefore signals weaker potency.

Take `O=c1oc(OCc2ccccc2)nc2c(Cl)cccc12`: the Activity (with Escherichia coli [1]; in assay [6]) was under 5% throughout. For the same compound, the Ratio IC50 in assay [2] is 130. In addition, the IC50 in assay [3] is under 0.1 µM; at Rhomboid protease GluP, 0.47 µM; in [4], 63 µM; in assay [5], under 0.1 µM.
On to `O=c1oc(OCc2ccccc2)nc2ccccc12`, for which the Activity (in the assay with Escherichia coli [1]; in [6]) was under 5% in each case. Also, the IC50 in assay [3] is under 0.1 µM; at Rhomboid protease GluP it was 3.7 µM; in assay [4], 2.5 µM; in [5] it was under 0.1 µM. Besides, the inhibition entry with Escherichia coli [7] is “Active”. Also, the inhibition result with Escherichia coli [8] was “inactive”.
In the case of `C#CCCOc1oc(=O)c2cc(N)ccc2c1Cl`, the inhibition result (in the assay with Escherichia coli [9]; in assay [10]) was “Active” in each case.
Take `C#CCCCc1nc2cccc(Cl)c2c(=O)o1`: the inhibition result (in the assay on Escherichia coli [9]; in [10]) was “Active” in each case.
Regarding `CCOc1nc2cccc(Cl)c2c(=O)o1`, the Activity (with Escherichia coli [1]; in assay [6]) was under 5% in each case. The IC50 was under 0.1 µM in assay [3], 7.1 µM at Rhomboid protease GluP, 2.2 µM in assay [4] and under 0.1 µM in assay [5]. Also, in the assay on Escherichia coli [11], the inhibition entry is “Active”. Moreover, the inhibition result in the assay with Escherichia coli [7] is “inactive”.
As for `Cc1cccc2nc(OCCc3ccccc3)oc(=O)c12`, the inhibition entry (in the assay with Escherichia coli [9]; in assay [10]) was “inactive” in each case.
As for `O=c1oc(OCCc2ccccc2)nc2cccc(Cl)c12`, the inhibition entry (in the assay on Escherichia coli [9]; in assay [10]) was “inactive” each time.
Turning to `O=c1oc(OCc2ccccc2)nc2cccc(Cl)c12`, the Activity (with Escherichia coli [1]; in [6]) was under 5% in each case. Besides, the IC50 is under 0.1 µM in assay [3], 1.6 µM at Rhomboid protease GluP, 1.2 µM in assay [4] and under 0.1 µM in assay [5]. Besides, in the assay on Escherichia coli [11], the inhibition result was “Active”. In the assay on Escherichia coli [7], the inhibition entry is “inactive”.
On to `C#CCOc1nc2cccc(Cl)c2c(=O)o1`, for which the Activity (in the assay with Escherichia coli [1]; in assay [6]) was under 5% each time. Further, the inhibition entry (in the assay with Escherichia coli [9]; in the assay with Escherichia coli [11]; in assay [10]) was “Active” in each case. The IC50 was determined as 1.2 µM in [3], 6.2 µM on Rhomboid protease GluP, 1.7 µM in assay [4] and 0.41 µM in assay [5]. Also, the inhibition result in the assay with Escherichia coli [7] is “inactive”.
For `O=c1oc(Cl)c(Cl)c2ccccc12`, the Activity with Escherichia coli [12] was determined as 50%.
As to `Cc1ccc2nc(OCc3ccccc3)oc(=O)c2c1`, the Activity (in the assay on Escherichia coli [1]; in assay [6]) was under 5% in each case. Besides, the values for the 50% inhibitory concentration (IC50) (in assay [3]; on Rhomboid protease GluP; in [5]) were under 0.1 µM, 4.6 µM and under 0.1 µM, respectively.
On to `C#CCOc1nc2cccc(C)c2c(=O)o1`, for which the Activity (with Escherichia coli [1]; in assay [6]) was under 5% throughout. The IC50 in assay [3] was 1.1 µM; on Rhomboid protease GluP, 2.8 µM; in assay [5], under 0.1 µM.
Regarding `O=c1oc(OCc2ccccc2)nc2cc3ccccc3cc12`, the Activity (in the assay with Escherichia coli [1]; in assay [6]) was under 5% in each case. Besides, the concentration for half-maximal inhibition (IC50) in assay [3] was under 0.1 µM; on Rhomboid protease GluP, 7.3 µM; in [4] it was 2.4 µM; in [5] it was under 0.1 µM.
`Cc1cccc2nc(OCc3ccccc3)oc(=O)c12`: the Activity (with Escherichia coli [1]; in assay [6]) was under 5% in each case. The IC50 was under 0.1 µM in [3]; 15 µM at Rhomboid protease GluP; 8.5 µM in [13]; 1 µM in assay [4]; under 0.1 µM in assay [5]. In the assay on Escherichia coli [11], the inhibition result was “Active”. In addition, the Ratio IC50 in assay [14] was found to be 15.
`C#CCCCc1nc2cccc(C)c2c(=O)o1`: the inhibition result (in the assay with Escherichia coli [9]; in assay [10]) was “Active” in each case.

These data come from ChEMBL document CHEMBL4219119, “Benzoxazin-4-ones as novel, easily accessible inhibitors for rhomboid proteases” (Bioorg Med Chem Lett, 2018).
